The target in data set [1] is T1, recombinant human 17β-HSD1 (Homo sapiens, UniProt P14061).
T1 construct: made in house; host or cells: Sd9 (Sf9) insect cells, baculovirus (Bac to Bac Expression System); microsomal fraction
T1 sequence (P14061 1-328): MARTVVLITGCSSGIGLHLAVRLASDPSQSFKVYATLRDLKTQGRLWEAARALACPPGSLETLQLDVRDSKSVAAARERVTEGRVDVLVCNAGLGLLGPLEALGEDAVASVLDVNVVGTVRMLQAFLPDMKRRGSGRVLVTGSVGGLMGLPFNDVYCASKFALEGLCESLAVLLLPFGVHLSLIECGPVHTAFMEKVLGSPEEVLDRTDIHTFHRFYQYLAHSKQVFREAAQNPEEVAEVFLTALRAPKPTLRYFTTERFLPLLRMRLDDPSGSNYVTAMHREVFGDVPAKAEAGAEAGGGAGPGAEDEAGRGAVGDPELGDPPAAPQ
In words: Inhibition of recombinant human 17β-HSD1 (conversion of 3H-estrone to estradiol, HPLC). It counts as biochemical. Particulars: inhibitor 1 μM; 30 nM estrone, 1 mM NADPH, 30 min at RT; read-out: 17β-HDS1 Inhibition % at 1 μM. The method, then: 17β-HSD1 production and isolation: Recombinant baculovirus was generated by the “Bac to Bac Expression System” (Invitrogen). Recombinant bacmid was transfected to Sd9 insect cells using “Cellfectin Reagent” (Invitrogen). 60 h later cells were harvested; the microsomal fraction was isolated as described by Puranen, T. J., Poutanen, M. H., Peltoketo, H. E., Vihko, P. T. and Vihko, R. K. (1994) Site-directed mutagenesis of the putative active site of human 17 β-hydroxysteroid dehydrogenase type 1. Biochem. J. 304: 289-293. Aliquots were stored frozen until determination of enzymatic activity.
Assay—Inhibition of recombinant human 17β-HSD1: Recombinant protein (1 μg/ml) was incubated in 20 mM KH2PO4 pH 7.4 with 30 nM estrone (including 800 000 cpm/ml of ^3H-estrone) and 1 mM NADPH for 30 min at RT, in the presence of the potential inhibitor at concentrations 1 μM or 0.1 μM. Inhibitor stock solutions were prepared in DMSO. Final concentration of DMSO was adjusted to 1% in all samples. The enzyme reaction was stopped by addition of 10% trichloroacetic acid (final concentration). Samples were centrifuged in a microtiter plate at 4000 rpm for 10 min. Supernatants were applied to reverse phase HPLC on a Waters Symmetry C18 column, equipped with a Waters Sentry Guard column. Isocratic HPLC runs were performed at RT at a flow rate of 1 ml/min in acetonitrile:water 48:52 as running solvent. Radioactivity was monitored in the eluate by a Packard Flow Scintillation Analyzer. Total radioactivity for estrone and estradiol were determined in each sample and percent conversion of estrone to estradiol was calculated according to the following formula:
(§1) Percent inhibition was calculated flowingly: % inhibition=100−% conversion

A short description of data set [2]: Metabolic stability assay, human liver microsome and homogenate incubations. It counts as in vitro ADME. Particulars: human liver homogenate or microsomes, LC/PDA/TOF-MS. The method, then:
The in vitro metabolic stability of the compounds of the invention was determined for exemplified compounds using human liver microsome and homogenate incubations. The incubation time points used with or without appropriate cofactors were 0 min and 60 min. Samples were collected at both time points and substrates were detected using LC/PDA/TOF-MS. In vitro metabolic stability (% remaining after 60 min in human liver homogenate or microsomes) of the compounds were calculated and the results are summarized in Table 3.
In general terms: Liver microsomes are a subcellular fraction often used to study metabolism.

Data set [3] has as its target T2, recombinant human 17β-HSD2 (Homo sapiens, UniProt P37059).
T2 construct: made in house; host or cells: Sd9 (Sf9) insect cells, baculovirus (Bac to Bac Expression System); fractionated cell extract
T2 sequence (P37059 1-387): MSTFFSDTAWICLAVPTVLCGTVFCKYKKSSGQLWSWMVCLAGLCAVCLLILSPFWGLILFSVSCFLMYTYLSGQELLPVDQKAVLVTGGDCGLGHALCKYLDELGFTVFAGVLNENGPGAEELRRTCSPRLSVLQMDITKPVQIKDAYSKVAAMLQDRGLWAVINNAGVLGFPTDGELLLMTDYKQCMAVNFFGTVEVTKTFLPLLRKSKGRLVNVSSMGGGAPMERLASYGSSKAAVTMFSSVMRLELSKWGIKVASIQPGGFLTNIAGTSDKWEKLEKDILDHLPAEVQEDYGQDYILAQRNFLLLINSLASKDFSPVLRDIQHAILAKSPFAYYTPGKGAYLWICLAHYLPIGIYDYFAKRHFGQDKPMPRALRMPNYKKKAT
Description: Inhibition of recombinant human 17β-HSD2 (conversion of 3H-estradiol to estrone, HPLC). It counts as biochemical. Particulars: inhibitor 1 μM; 50 nM estradiol, 1 mM NADH, 30 min at RT. The method, then: 17β-HSD2 production and isolation: Similarly to 17β-HSD1 the Recombinant baculovirus was generated by the “Bac to Bac Expression System” (Invitrogen). Recombinant bacmid was transfected to Sd9 insect cells using “Cellfectin Reagent” (Invitrogen). 60 h later cells were harvested and supernatant were fractionated by the following protocol: • cells were dissolved into 40 ml of A-buffer (40 mM TRIS, pH8.0, 20% glycerol, 20 μM NAD, 0.4 mM PMSF, 150 mM NaCl, 0.5% dodecyl-β-maltoside+protease inhibitor cocktail) • cells were sonicated • lysate was incubated on ice for 15 min • lysate was centrifuged 5000 rpm 15 min, +4° C. • centrifugation of the supernatant 180 000 g 30 min, +4° C. • pellet was dissolved into 8 ml of A-buffer • not resuspended material was removed by centrifugation 5000 rpm 15 min, +4° C. • the clear supernatant was divided into 100 μl aliquots and were stored frozen until determination of enzymatic activity.
The amount of 17β-HSD2 was analysed by immunoblotting and total protein concentration of each extract batch was determined.
Assay—Inhibition of recombinant human 17β-HSD2: Recombinant protein (4 μg/ml) was incubated in 20 mM KH2PO4 pH 8.5 with 50 nM estradiol (including 800 000 cpm/ml of ^3H-estradiol) and 1 mM NADH for 30 min at RT, in the presence of the potential inhibitor at concentrations 1 μM or 0.1 μM. Inhibitor stock solutions were prepared in DMSO. Final concentration of DMSO was adjusted to 1% in all samples. The enzyme reaction was stopped by addition of 10% trichloroacetic acid (final concentration). Samples were centrifuged in a microtiter plate at 4000 rpm for 10 min. Supernatants were applied to reverse phase HPLC on a Waters Symmetry C18 column, equipped with a Waters Sentry Guard column. Isocratic HPLC runs were performed at RT at a flow rate of 1 ml/min in acetonitrile:water 48:52 as running solvent. Radioactivity was monitored in the eluate by a Packard Flow Scintillation Analyzer. Total radioactivity for estrone and estradiol were determined in each sample and percent conversion of estradiol to estrone was calculated according to the following formula:
as §1

Consider `Cc1cnc(NC(=O)CC[C@@H]2c3c[nH]nc3[C@@]3(C)CCC4c5cc([N+](=O)[O-])c(O)cc5CCC4C23)s1` (stereo partly drawn) [Compound 55, 3-((6aS,10S)-2-Hydroxy-6a-methyl-2-nitro-4b,5,6,6a,8,10,10a,10b,11,12-decehydro-7,8-diaza-pentaleno[2,1-1]phenanthren-10-yl}-N-(5-methylthiazol-2-yl)propanamide], for which the inhibition (commonly the share of the control response that was lost under treatment) at 1 µM in data set [1] turned out to be 69%; in data set [3], 7%. In addition, in data set [2], the “In vitro metabolic stability, % remaining after 60 min” value is reported as 86%.
In the same order, the values of `Cc1cnc(NC(=O)CC[C@@H]2c3c[nH]nc3[C@@]3(C)CCC4c5cc(C(C)(C)C)c(O)cc5CCC4C23)s1` (stereo partly drawn) [Compound 53, 3-((6aS,10S)-3-tert-Butyl-2-hydroxy-6a-methyl-4b,5,6,6a,8,10,10a,10b,11,12-decehydro-7,8-diaza-pentaleno[2,1-1]phenanthren-10-yl}-N-(5-methylthiazol-2-yl)propanamide] are 76%, 13% and 100%.
Turning to `CO/N=C1\C[C@@H](CCC(=O)Nc2ncc(C)s2)C2C3CCc4c(ccc(O)c4F)C3CC[C@]12C` (stereo partly drawn) [Compound 92, 3-{(13S,15R)-4-Fluoro-3-hydroxy-17-[(E)-methoxyimino]-13-methyl-7,8,9,11,12,13,14,15,16,17-decahydro-6H-cyclopenta[a]phenanthren-15-yl}-N-(5-methylthiazol-2-yl)propanamide], the figures for the inhibition at 1 µM in data set [1] and in data set [3] were 90% and 7%, respectively. In addition, in data set [2], the “In vitro metabolic stability, % remaining after 60 min” value came out at 68%.
On to `Cc1cnc(NC(=O)CC[C@@H]2c3c[nH]nc3[C@@]3(C)CCC4c5ccc(O)cc5CCC4C23)s1` (stereo partly drawn) [Compound 51, 3-((6aS,10S)-2-Hydroxy-6a-methyl-4b,5,6,6a,8,10,10a,10b,11,12-decehydro-7,8-diaza-pentaleno[2,1-1]phenanthren-10-yl}-N-(5-methylthiazol-2-yl)propanamide], for which the inhibition at 1 µM in data set [1] was found to be 82%; in data set [3], 15%. The “In vitro metabolic stability, % remaining after 60 min” value in data set [2] is recorded as 46%.
In the case of `CO/N=C1\C[C@@H](CCC(=O)Nc2ncc(C)s2)C2C3CCc4cc(O)c(F)cc4C3CC[C@]12C` (stereo partly drawn) [Compound 91, 3-{(13S,15R)-2-Fluoro-3-hydroxy-17-[(E)-methoxyimino]-13-methyl-7,8,9,11,12,13,14,15,16,17-decahydro-6H-cyclopenta[a]phenanthren-15-yl}-N-(5-methylthiazol-2-yl)propanamide], the results for the inhibition at 1 µM in data set [1] and in data set [3] were 94% and 5%, respectively. In data set [2], the “In vitro metabolic stability, % remaining after 60 min” value is reported as 92%.
On the same counts, the results for `COc1ccc2c(c1)CCC1C2CC[C@]2(C)c3n[nH]cc3[C@@H](CCC(=O)Nc3ncc(C)s3)C12` (stereo partly drawn) [Compound 50, 3-((6aS,10S)-2-Methoxy-6a-methyl-4b,5,6,6a,8,10,10a,10b,11,12-decehydro-7,8-diaza-pentaleno[2,1-1]phenanthren-10-yl}-N-(5-methylthiazol-2-yl)propanamide] are 78%, 0% and 88%.
Take `Cc1cnc(NC(=O)CC[C@@H]2C/C(=N\O)[C@@]3(C)CCC4c5ccccc5CCC4C23)s1` (stereo partly drawn) [Compound 59, 3-{(13S,15R)-17-[(E)-hydroxyimino]-13-methyl-7,8,9,11,12,13,14,15,16,17-decahydro-6H-cyclopenta[a]phenanthren-15-yl}-N-(5-methylthiazol-2-yl)propanamide]: the figures for the inhibition at 1 µM in data set [1] and in data set [3] were 93% and 2%, respectively. Further, in data set [2], the “In vitro metabolic stability, % remaining after 60 min” value amounted to 100%.
In the case of `Cc1cnc(NC(=O)CC[C@@H]2C(=C\O)/C(=N\O)[C@@]3(C)CCC4c5cc(Br)c(O)c(Br)c5CCC4C23)s1` (stereo partly drawn) [Compound 70, 3-{(13S,15S)-2,4-Dibromo-3-hydroxy-17-[(Z)-hydroxyimino]-16-[1-hydroxy-meth-(E)-ylidene]-13-methyl-7,8,9,11,12,13,14,15,16,17-decahydro-6H-cyclopenta[a]phenanthren-15-yl}-N-(5-methylthiazol-2-yl)propanamide], the inhibition at 1 µM is 94% in data set [1] and 8% in data set [3]. In addition, the “In vitro metabolic stability, % remaining after 60 min” value in data set [2] was found to be 97%.

Values taken from patent US20170081357A1, “[…] ACTIVE 17-NITROGEN SUBSTITUTED ESTRATREINTHIAZOLE DERIVATIVES AS INHIBITORS OF 17.BETA-HYDROXYSTEROID DEHYDROGENASE” (FORENDO PHARMA LTD, priority 2013, published 2017).
